These results are taken from PMC10891534, “The Staphylococcus aureus ArlS Kinase Inhibitor Tilmicosin Has Potent Anti-Biofilm Activity in Both Static and Flow Conditions” (Microorganisms, 2024).

One may read the IC50 as the midpoint of a concentration-inhibition curve. High values mean weaker potency, low ones greater potency.

The experiment addresses ArlS histidine kinase (ArlSHK) (Staphylococcus aureus, UniProt Q9KJN3). In words: Kinase-Glo luminescent ATPase/kinase assay with purified ArlSHK, […] ATP, dose-response. Format: biochemical. A general note: In Kinase-Glo more light means more ATP remaining.

Sequence of ArlS histidine kinase (ArlSHK) (Q9KJN3 239-451): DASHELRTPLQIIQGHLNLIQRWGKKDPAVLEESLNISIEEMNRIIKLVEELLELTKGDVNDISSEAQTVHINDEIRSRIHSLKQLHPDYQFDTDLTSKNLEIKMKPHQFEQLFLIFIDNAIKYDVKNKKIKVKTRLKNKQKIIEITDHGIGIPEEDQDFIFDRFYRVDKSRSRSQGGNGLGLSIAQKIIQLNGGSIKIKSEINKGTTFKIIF

As for `CC[C@H]1OC(=O)C[C@@H](O)[C@H](C)[C@@H](O[C@@H]2O[C@H](C)[C@@H](O)[C@H](N(C)C)[C@H]2O)[C@@H](CCN2C[C@H](C)C[C@H](C)C2)C[C@@H](C)C(=O)/C=C/C(C)=C/[C@@H]1CO[C@@H]1O[C@H](C)[C@@H](O)[C@@H](OC)[C@H]1OC` [tilmicosin], the IC50 stood at 1090 nM.
